Like-named read-outs stand apart in the source and are kept apart here.
Legend:
apo(a) KIV5–8 = biological target: T1, apo(a) KIV5–8 (Homo sapiens, UniProt P08519); experiment: ITC binding to apo(a) KIV5–8
T1 construct: made in house
T1 sequence (P08519 1043-1470 limits assumed): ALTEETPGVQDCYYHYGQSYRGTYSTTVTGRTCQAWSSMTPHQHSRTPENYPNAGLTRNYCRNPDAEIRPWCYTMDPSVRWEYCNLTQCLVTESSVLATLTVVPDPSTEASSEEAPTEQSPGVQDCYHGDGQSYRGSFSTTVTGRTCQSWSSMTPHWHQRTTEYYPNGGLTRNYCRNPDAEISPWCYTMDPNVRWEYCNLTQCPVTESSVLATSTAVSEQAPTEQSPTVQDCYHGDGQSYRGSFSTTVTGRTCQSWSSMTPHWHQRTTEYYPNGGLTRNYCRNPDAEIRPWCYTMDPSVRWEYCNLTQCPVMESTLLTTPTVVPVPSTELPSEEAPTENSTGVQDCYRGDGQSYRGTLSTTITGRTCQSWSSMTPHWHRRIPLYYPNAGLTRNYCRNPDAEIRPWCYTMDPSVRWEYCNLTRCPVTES
Protocol: The nucleotide sequence encoding the human LPA gene (NP_005568.2) was inserted into a mammalian expression vector containing a cytomegalovirus promoter. Protein expression was performed by transient transfection of human embryonic kidney 293 (HEK293) cells cultured in serum-free medium. The culture medium was collected five days after transfection and human apo(a) protein was purified using L-lysine affinity chromatography. Nucleotide sequences encoding various KIV domains of human apo(a) and human and rat plasminogen were inserted into a pET21a Escherichia coli expression vector. Bacterial BL21(DE3) was used as the expression host, and the induction of protein expression was performed in 2× TY medium with 1 mM isopropyl β-D-1-thiogalactopyranoside at 37 °C for 5 h. Cells were collected and stored at –80 °C for subsequent protein purification and refolding. […] All protein concentrations were determined by A280.
Experiments were performed on a MicroCal Auto-iTC200 titration calorimeter (Malvern Panalytical), with a cell volume of 200 μl and a 40-μl microsyringe. […] The microsyringe was loaded with a solution of the respective compounds, with the concentration measured by quantitative nuclear magnetic resonance, and was inserted into the calorimetric cell prefilled with the respective recombinant proteins of known concentration in ITC buffer. […]

[1] = Pharmacokinetics in monkey plasma after oral dosing; type: in vivo; settings: for AUC(0-t): day 15, read-out: AUC(0-96 hr)
Protocol: Plasma samples were collected from all monkeys before dosing and at four-hour time points only on days 1, 3, 5, 9 and 14. A full PK profile was obtained in the first three monkeys of each dose group on day 15, collecting samples before dosing and 1, 2, 4, 8, 12, 24, 48 and 96 h after dosing. Concentrations of compounds were evaluated in plasma samples using a non-GLP LC–MS/MS assay. The non-compartmental plasma PK parameters were calculated using Watson (v.7.5).

Compound	Kd (apo(a) KIV5–8) [nM]	Tmax ([1]; Chinese cynomolgus, oral 1 mg/kg, day 15) [h]	Cmax ([1]; Chinese cynomolgus, oral 10 mg/kg, day 15) [µM]	AUC(0-t) ([1]; Chinese cynomolgus, oral 10 mg/kg) [µM·h]	Tmax ([1]; Chinese cynomolgus, oral 100 mg/kg, day 15) [h]	AUC(0-t) ([1]; cynomolgus, oral 100 mg/kg) [µM·h]
Cl.Cl.O=C(Nc1cccc(C[C@H](C(=O)O)[C@H]2CCNC2)c1)Nc1cccc(C[C@H](C(=O)O)[C@H]2CCNC2)c1 [LSN3441732]	< 15					
O=C(O)[C@@H](Cc1cccc(CN(Cc2cccc(C[C@H](C(=O)O)[C@H]3CCNC3)c2)Cc2cccc(C[C@H](C(=O)O)[C@H]3CCNC3)c2)c1)[C@H]1CCNC1 [LY3473329]		7 ± 5.7	3.47	207	1 ± 1	294
